Consider 16 compounds from paper PMC11472313, “Development of Fragment-Based Inhibitors of the Bacterial Deacetylase LpxC with Low Nanomolar Activity” (Journal of Medicinal Chemistry, 2024).

The target in one experiment is T1, LasB (Pseudomonas aeruginosa, UniProt Q02RJ6).
T1 construct: The elastase LasB of P. aeruginosa is a secreted metalloprotease; endogenous in cells; host or cells: P. aeruginosa PA14 culture supernatant
Nature of the experiment: FRET-based LasB in vitro inhibition assay. The note with it: for inhibition at 20 µM: read-out: LasB Inhibition at 20 μM. The format is biochemical, P. aeruginosa PA14. The protocol: (§1) Purification of LasB from P. aeruginosa PA14 supernatant and the subsequent performance of the FRET-based in vitro inhibition assay was performed as described previously.[66] The TACE (ADAM-17) inhibitor screening kit was purchased from Sigma-Aldrich (Saint Louis, MO). MMPs 1–3 along with the SensoLyte 520 Generic MMP Activity Kit Fluorimetric were purchased from AnaSpec (Fremont, CA, USA). The assays were performed according to the guidelines of the respective manufacturer. Fluorescence signals were measured using a CLARIOstar plate reader (BMG Labtech, Ortenberg, Germany).

The target in another experiment is T2, P. aeruginosa LpxC (Pseudomonas aeruginosa, UniProt P47205).
T2 construct: made in house; host or cells: E. coli BL21(DE3)
Kind of experiment: LC–MS/MS-based P. aeruginosa LpxC enzyme inhibition assay. The format is biochemical. The note with it: from IC50 via Cheng–Prusoff. The text has this:
As Pseudomonas aeruginosa is one of the so-called ESKAPE pathogens,[56] being the leading cause of nosocomial infections throughout the world, and carbapenem-resistant P. aeruginosa strains were assigned the highest priority (priority 1: critical) within the “WHO priority pathogens list for R&D of new antibiotics” (WHO 2017),[57] new antibacterial agents combating these bacteria are urgently required. Thus, our newly developed LpxC inhibitors should be tested for inhibitory activity toward P. aeruginosa LpxC, which shares 57% sequence identity with E. coli LpxC.[28] Therefore, a liquid chromatography with tandem mass spectrometry (LC–MS/MS)-based P. aeruginosa LpxC assay was established. […] After incubation and subsequent termination of the enzymatic reaction, the samples were subjected to LC–MS/MS analysis. Following the chromatographic separation of substrate 1 and deacetylated product 2, the eluted compounds were ionized and subjected to fragmentation. Three multiple reaction monitoring (MRM) transitions were detected per compound [precursor ions: m/z (substrate 1) 832; m/z (deacetylated product 2) 790; product ions: m/z (product 1) 385, collision energy = −60 V; m/z (product 2) 159, collision energy = −80 V; m/z (product 3) 79, collision energy = −140 V]. The MRM transitions 832 → 79 of substrate 1 and 790 → 79 of product 2 were used as quantifiers; the other mass transitions were used as qualifiers.
The protocol of the LC–MS/MS-based P. aeruginosa LpxC assay was based on the E. coli LpxC C63A enzyme assay. Compared to the fluorescence-based enzyme assay, the substrate was diluted 1:10 and the inhibitors were diluted 1:4.
The wells in a black, nonbinding, 96-well fluorescence microplate (Greiner Bio One, Frickenhausen) were filled with 93 μL of 2.69 μM UDP-3-O-[(R)-3-hydroxymyristoyl]-N-acetylglucosamine in assay buffer [50 mM KH2PO4/K2HPO4 (pH = 7.5), 80 μM dithiothreitol, 0.02% Brij 35]. In order to assay the inhibitors at final concentrations from 5 nM up to 5 μM, 2 μL of a respective dilution of the compounds in DMSO were added. The addition of 5 μL of a solution of purified P. aeruginosa LpxC (5 μg mL^–1) in assay buffer led to final concentrations of 2.5 μM UDP-3-O-[(R)-3-hydroxymyristoyl]-N-acetylglucosamine, 7.5 nM P. aeruginosa LpxC, 2% DMSO, and from 5 nM up to 5 μM inhibitor. The microplate was incubated for 30 min at 37 °C in a plate shaker. Then, the biochemical reaction was stopped by adding 40 μL of 0.625 M hydrochloric acid. The reaction mixtures were further incubated for 10 min, sealed, and stored at −80 °C until analysis.
LC–MS/MS-Analysis. The reaction mixtures were separated by ultrahigh performance liquid-chromatography (1290 II Infinity UHPLC, Agilent Technologies), and the eluted compounds were analyzed by mass spectrometry using electrospray ionization in negative ion mode with a triple quadrupole linear ion trap mass spectrometer (QTRAP 5500, AB Sciex LLC).
To analyze the eluted compounds by mass spectrometry, a MRM method was applied. The specific parameters of this method are given in Table S2 (Supporting Information). After detection and selection of the precursor ions (1: m/z 832; 2: m/z 790), both analytes were fragmented, leading to three identical product ions [m/z (product 1) 385, collision energy = −60 V; m/z (product 2) 159, collision energy = −80 V; m/z (product 3) 79, collision energy = −140 V]. The mass transitions 832 → 79 (substrate 1) and 790 → 79 (product 2) were used as quantifiers; the other mass transitions were used as qualifiers. The ratio between substrate 1 and product 2 was quantified by comparing the peak areas of the quantifiers. The percentual inhibition caused by each inhibitor concentration was determined with respect to the amount of the product formed in the noninhibited reaction after 30 min.
Each assay was performed at least two times on separate days. […]

For the next experiment, the target named is T3, TACE (ADAM-17) (Homo sapiens, UniProt P78536).
T3 construct: purchased Sigma-Aldrich (Saint Louis, MO)
Kind of experiment: TACE (ADAM-17) inhibitor screening kit. The format is biochemical. The note with it: for inhibition at 20 µM: read-out: TACE (% inhibition at 20 μM). Here is the method: (§2) Since LpxC and LasB are zinc-dependent enzymes, we investigated potential off-target activity of the three frontrunners on mammalian zinc-dependent enzymes. Our panel comprised three representative matrix-metalloproteases (MMP1–3) and tumor necrosis factor-α converting enzyme (TACE, also known as ADAM17) (Table 6).
as §1

In the next experiment the target is T4, MMP1 (Homo sapiens, UniProt P03956).
T4 construct: purchased AnaSpec (Fremont, CA, USA)
T4 sequence (P03956 100-469): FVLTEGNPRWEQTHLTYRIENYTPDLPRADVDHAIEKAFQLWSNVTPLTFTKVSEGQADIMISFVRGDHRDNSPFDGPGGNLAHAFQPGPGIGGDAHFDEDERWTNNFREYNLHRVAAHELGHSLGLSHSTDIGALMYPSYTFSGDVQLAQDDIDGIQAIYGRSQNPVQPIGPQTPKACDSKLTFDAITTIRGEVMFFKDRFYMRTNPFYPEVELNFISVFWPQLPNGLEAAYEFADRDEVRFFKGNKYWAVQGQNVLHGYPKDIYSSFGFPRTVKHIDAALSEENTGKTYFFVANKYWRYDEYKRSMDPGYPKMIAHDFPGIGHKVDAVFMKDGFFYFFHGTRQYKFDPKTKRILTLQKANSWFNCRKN
Nature of the experiment: MMP1 inhibition (SensoLyte 520 Generic MMP Activity Kit). It counts as biochemical. Particulars: read-out: MMP1 (% inhibition at 100 μM). The protocol:
as §2, §1

Structures are written as SMILES. Several values for one entry are separate records, joined by “and”; a condition that tells them apart may be missing. Identical values can stand only once. Where only a bound is given, the exact number is not on record here.

T2 sequence (P47205 whole entry): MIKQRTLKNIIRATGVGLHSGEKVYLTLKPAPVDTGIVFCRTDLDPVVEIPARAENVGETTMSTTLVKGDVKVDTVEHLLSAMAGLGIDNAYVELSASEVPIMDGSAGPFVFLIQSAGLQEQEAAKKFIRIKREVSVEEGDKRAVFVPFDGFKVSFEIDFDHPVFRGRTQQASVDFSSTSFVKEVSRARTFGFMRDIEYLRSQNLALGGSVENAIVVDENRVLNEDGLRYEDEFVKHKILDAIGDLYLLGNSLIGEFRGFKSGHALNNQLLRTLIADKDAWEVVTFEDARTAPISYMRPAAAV
T3 sequence (P78536 215-824, species assumed): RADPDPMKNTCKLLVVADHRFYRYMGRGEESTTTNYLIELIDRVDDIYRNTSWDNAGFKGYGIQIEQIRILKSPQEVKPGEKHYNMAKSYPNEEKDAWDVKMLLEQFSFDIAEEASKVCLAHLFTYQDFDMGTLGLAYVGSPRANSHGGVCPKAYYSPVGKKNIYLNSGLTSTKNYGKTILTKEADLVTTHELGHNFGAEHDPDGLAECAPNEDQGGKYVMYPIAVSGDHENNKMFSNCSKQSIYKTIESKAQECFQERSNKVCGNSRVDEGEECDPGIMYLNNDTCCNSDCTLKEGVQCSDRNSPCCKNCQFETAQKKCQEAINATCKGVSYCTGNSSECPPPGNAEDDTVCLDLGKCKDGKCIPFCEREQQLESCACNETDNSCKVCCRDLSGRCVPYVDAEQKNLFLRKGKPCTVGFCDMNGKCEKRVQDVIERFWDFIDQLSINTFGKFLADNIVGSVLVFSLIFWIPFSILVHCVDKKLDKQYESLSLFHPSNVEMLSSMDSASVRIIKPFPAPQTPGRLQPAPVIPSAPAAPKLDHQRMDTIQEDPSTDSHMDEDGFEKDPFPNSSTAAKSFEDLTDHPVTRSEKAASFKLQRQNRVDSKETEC
T1 sequence (Q02RJ6 198-498): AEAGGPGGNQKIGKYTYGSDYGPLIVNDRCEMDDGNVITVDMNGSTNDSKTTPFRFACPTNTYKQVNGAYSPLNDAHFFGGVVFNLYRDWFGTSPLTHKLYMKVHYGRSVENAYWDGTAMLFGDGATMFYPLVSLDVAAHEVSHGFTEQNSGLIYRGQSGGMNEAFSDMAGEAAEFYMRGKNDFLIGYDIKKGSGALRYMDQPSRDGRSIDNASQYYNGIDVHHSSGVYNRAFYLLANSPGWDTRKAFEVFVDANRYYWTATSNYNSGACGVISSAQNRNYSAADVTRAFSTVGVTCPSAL

A word on the IC50: it is the concentration that inhibits the measured activity by half. Read a high IC50 as lower potency. Usually inhibition stands for the percentage by which the read-out fell short of the control. A word on the Ki: it is a dissociation constant, usually derived from enzyme kinetics or from competition with a known ligand. In the case of `O=C(NO)[C@H](COCc1ccccc1)OCc1ccc(C#Cc2ccc(CN3CCOCC3)cc2)cc1` [(S)-11a, (S)-3-(Benzyloxy)-N-hydroxy-2-[(4-{[4-(morpholinomethyl)phenyl]ethynyl}benzyl)oxy]propanamide], at LasB, the IC50 worked out at 14.3 ± 0.9 µM and the inhibition at 20 µM was 62.3 ± 3.2%. In addition, the affinity on P. aeruginosa LpxC corresponds to a Ki of 0.725 ± 0.335 µM.
For `O=C(NO)[C@H](CNCc1ccccc1)OCc1ccc(C#Cc2ccc(CN3CCOCC3)cc2)cc1` [(S)-12a, (S)-3-(Benzylamino)-N-hydroxy-2-[(4-{[4-(morpholinomethyl)phenyl]ethynyl}benzyl)oxy]propanamide] the same measures were 21.9 ± 1.2 µM, 57 ± 2% and 0.862 ± 0.07 µM.
For the compound `O=C(NC[C@H](OCc1ccc(C#Cc2ccc(CN3CCOCC3)cc2)cc1)C(=O)NO)c1ccccc1` [(S)-13a, (S)-N-{3-(Hydroxyamino)-2-[(4-{[4-(morpholinomethyl)phenyl]ethynyl}benzyl)oxy]-3-oxopropyl}benzamide], the inhibition at 20 µM on LasB was 20.1 ± 3.9%. In addition, the Ki on P. aeruginosa LpxC came to 0.0582 ± 0.0001 µM.
For the compound `O=C(NC[C@H](OCc1ccc(C#Cc2ccc(CN3CCOCC3)cc2)cc1)C(=O)NO)c1cccc(-c2ccccc2)c1` [(S)-13c], at LasB, the “LasB Inhibition at 20 μM” value is listed as “little to no inhibitory activity” and the inhibition at 20 µM was below 10%. The compound also showed a Ki on P. aeruginosa LpxC of 0.149 ± 0.014 µM.
`O=C(NC[C@H](OCc1ccc(C#Cc2ccc(CN3CCOCC3)cc2)cc1)C(=O)NO)c1ccc(Oc2ccccc2)cc1` [(S)-13d]: at LasB, the “LasB Inhibition at 20 μM” value is listed as “little to no inhibitory activity” and the inhibition at 20 µM is below 10%. The inhibition constant (Ki) at P. aeruginosa LpxC is 0.196 ± 0.018 µM.
As to `O=C(NC[C@H](OCc1ccc(C#Cc2ccc(CN3CCOCC3)cc2)cc1)C(=O)NO)c1ccc2ccccc2n1` [(S)-13e], at LasB, the “LasB Inhibition at 20 μM” value was “little to no inhibitory activity” and the inhibition at 20 µM stood at 11.6 ± 1.9%. This compound also registered a Ki on P. aeruginosa LpxC of 0.168 ± 0.008 µM.
With `O=C(NC[C@H](OCc1ccc(C#Cc2ccc(CN3CCOCC3)cc2)cc1)C(=O)NO)c1cnc2ccccc2c1` [(S)-13f], at LasB, the “LasB Inhibition at 20 μM” value is listed as “little to no inhibitory activity” and the inhibition at 20 µM is below 10%. Moreover, the Ki on P. aeruginosa LpxC was determined as 0.0911 ± 0.0175 µM.
For `O=C(NC[C@H](OCc1ccc(C#Cc2ccc(CN3CCOCC3)cc2)cc1)C(=O)NO)c1cc2ccccc2[nH]1` [(S)-13g] the same measures were “little to no inhibitory activity”, below 10% and 0.046 ± 0.0164 µM.
`O=C(NC[C@H](OCc1ccc(C#Cc2ccc(CN3CCOCC3)cc2)cc1)C(=O)NO)c1c[nH]c2ccccc12` [(S)-13h]: at LasB, the “LasB Inhibition at 20 μM” value is given as “little to no inhibitory activity” and the inhibition at 20 µM is 25.2 ± 5.6%. The affinity on P. aeruginosa LpxC, expressed as Ki, was 0.00591 ± 0.00147 µM. Besides, the inhibition at 20 µM on TACE (ADAM-17) is below 10%. Besides, the inhibition at 100 µM on MMP1 is 15 ± 7%.
Consider `O=C(NC[C@H](OCc1ccc(C#Cc2ccc(CN3CCOCC3)cc2)cc1)C(=O)NO)c1cccc2[nH]ccc12` [(S)-13i], for which, at LasB, the “LasB Inhibition at 20 μM” value is listed as “little to no inhibitory activity” and the inhibition at 20 µM stood at 27.6 ± 2.9%. In addition, at P. aeruginosa LpxC, affinity was put at a Ki of 0.0103 ± 0.002 µM.
Regarding `O=C(NC[C@H](OCc1ccc(C#Cc2ccc(CN3CCOCC3)cc2)cc1)C(=O)NO)c1ccc2[nH]ccc2c1` [(S)-13j], at LasB, the “LasB Inhibition at 20 μM” value was “little to no inhibitory activity”. The inhibition at 20 µM at LasB is below 10%; at TACE (ADAM-17) it was 38 ± 5%. In addition, the Ki at P. aeruginosa LpxC is 0.0056 µM and 0.00558 µM. The results for the inhibition at 100 µM at TACE (ADAM-17) (100 μM (as printed in text)) and at MMP1 were 38% and below 10%, respectively.
Consider `O=C(NC[C@H](OCc1ccc(C#Cc2ccc(CN3CCOCC3)cc2)cc1)C(=O)NO)c1ccc[nH]1` [(S)-13k], for which the inhibition at 20 µM on LasB is 22.4 ± 3.1%. The compound further showed a Ki at P. aeruginosa LpxC of 0.029 ± 0.0076 µM.
For the compound `O=C(NC[C@H](OCc1ccc(C#Cc2ccc(CN3CCOCC3)cc2)cc1)C(=O)NO)c1cc[nH]n1` [(S)-13l], on LasB, the “LasB Inhibition at 20 μM” value is “little to no inhibitory activity” and the inhibition at 20 µM came out at 11.6 ± 0.7%. Further, the affinity at P. aeruginosa LpxC, expressed as Ki, was 0.018 ± 0.0029 µM. Moreover, on TACE (ADAM-17), the IC50 was 5.4 µM and the inhibition at 20 µM amounted to 81 ± 2%. The “selectivity factor for TACE” value at TACE (ADAM-17) (TACE versus LpxC) is reported as 8.4. In addition, the inhibition at 100 µM on MMP1 was found to be 11 ± 6%.
Consider `O=C(NC[C@H](OCc1ccc(C#Cc2ccc(CN3CCOCC3)cc2)cc1)C(=O)NO)c1cc(-c2ccccc2)[nH]n1` [(S)-13m], for which, at LasB, the “LasB Inhibition at 20 μM” value was “little to no inhibitory activity” and the inhibition at 20 µM is below 10%. At P. aeruginosa LpxC, this compound returned a Ki of 0.0419 ± 0.0185 µM.
`Cc1noc(C)c1C(=O)NC[C@H](OCc1ccc(C#Cc2ccc(CN3CCOCC3)cc2)cc1)C(=O)NO` [(S)-13n]: on LasB, the IC50 was 1.8 ± 0.15 µM and the inhibition at 20 µM was 92.7 ± 0.7%. The Ki on P. aeruginosa LpxC was found to be 0.0804 ± 0.0097 µM.
For `O=C(NO)[C@H](CN(Cc1ccccc1)Cc1ccccc1)OCc1ccc(C#Cc2ccc(CN3CCOCC3)cc2)cc1` [(S)-37, (S)-3-(Dibenzylamino)-N-hydroxy-2-[(4-{[4-(morpholinomethyl)phenyl]ethynyl}benzyl)oxy]propanamide], at LasB, the “LasB Inhibition at 20 μM” value is on record as “no inhibitory activity” and the inhibition at 20 µM was below 10%. At P. aeruginosa LpxC, the Ki was above 3.25 µM.
